Laboratory results reported in patent publication US7341715B2, “Method and agents on the basis of 2-mercaptopropionic acid amides for durable hair forming and a method for producing same” (Wella AG, priority 2000, dated 2008).

How the values were obtained:
[1] = Comparison of the stabilities of the waves: wave stability (WSN); conditions: waving solution 87 mmoles/100 g reducing agent, standardized to glycerin monothioglycolate solution pH 9 = 100%; for WSN pH = 7: pH 7, 20 minutes at 50° C.; for WSN pH = 8: pH 8, 20 minutes at 50° C.; for WSN pH = 9: pH 9, 20 minutes at 50° C.
Description: The waving effectiveness of the 1-mercaptopropionamides was determined using glycerin monothioglycolate as comparison substance with the help of waving solutions at a pH of 7, 8 and 9. For this purpose, pre-bleached and therefore damaged counting hair strands (consisting of about 100 hairs) from Middle European hair was wound wet onto standardized spiral curlers (internal diameter of 3 millimeters) and, after being conditioned in an air-conditioned room (temperature: 20° C., relative humidity: 65%), treated with a solution of the reducing agent, containing 87 mmoles/100 g and adjusted to the respective pH. The amount of waving liquid applied was calculated from the ratio of 1:1.2 (1 g of hair: 1.2 mL of waving liquid). A period of action of 20 minutes at a temperature of 50° C. was selected. Subsequently, the hair was fixed with a peroxide-containing material, removed from the curlers and hung up for 4 hours in water (waterbath temperature: 40° C.).
The wave stability (WSN) is calculated from the following formula:
[formula] • 1o=total length of the not shaped, stretched strands (16.5 cm) • 1t=length of the strands, removed from the curlers and suspended, after 240 minutes • 1l=length of the shaped strands on curlers (for curlers with an internal diameter of 3 mm, 1l=35 mm)
As a standard, strands were treated with a glycerin monothioglycolate solution, the pH of which had been adjusted to a value of 9. The standardized wave stabilities, given below in Table 1, relate to this standard solution (pH=9), the wave stability (WSN) of which has been set at 100%.

[2] = pKa value; assay type: physicochemical

## CC(S)C(=O)N(CCO)C(C)C (stereo not shown) [N-Isopropyl,N-(2-hydroxyethyl)-2-mercaptopropionamide]
[1]
  WSN pH = 7: 65%
  WSN pH = 8: 88%
  WSN pH = 9: 109%
other
  melting point: 100 °C

## COCCNC(=O)C(C)S (stereo not shown) [N-(2-Methoxyethy)-2-mercaptopropionamide]
[1]
  WSN pH = 7: 87%
  WSN pH = 8: 99%
  WSN pH = 9: 106%

## CCC(O)CNC(=O)C(C)S (stereo not shown) [N-(2-Hydroxy-1-butyl)-2-mercaptopropionamide]
[1]
  WSN pH = 7: 79%
  WSN pH = 8: 91%
  WSN pH = 9: 94%

## CC(S)C(=O)NCCCN (stereo not shown) [N-(3-Aminopropyl)-2-mercaptopropionamide]
[1]
  WSN pH = 7: 67%
  WSN pH = 8: 82%
  WSN pH = 9: 88%

## CC(S)C(=O)NCCO (stereo not shown) [N-(2-Hydroxyethyl)-2-mercaptopropionamide]
[1]
  WSN pH = 7: 84%
  WSN pH = 8: 106%
  WSN pH = 9: 103%

## CC(S)C(=O)NCC1CCCO1 (stereo not shown) [N-Tetrahydrofurfuryl-2-mercaptopropionamide]
[1]
  WSN pH = 7: 85%
  WSN pH = 8: 88%
  WSN pH = 9: 94%
other
  melting point: 82 °C

## CCN(CC)CCNC(=O)C(C)S (stereo not shown) [N-(2-Diethylaminoethyl)-2-mercaptopropionamide]
[1]
  WSN pH = 7: 71%
  WSN pH = 8: 80%
  WSN pH = 9: 77%
other
  melting point: 74 °C

## CC(S)C(=O)NCCN1CCOCC1 (stereo not shown) [N-(2-Morpholinoethyl)-2-mercaptopropionamide]
[1]
  WSN pH = 7: 85%
  WSN pH = 8: 93%
  WSN pH = 9: 92%

## CCC(CO)NC(=O)C(C)S (stereo not shown) [N-(1-Hydroxymethylpropyl)-2-mercaptopropionamide]
[1]
  WSN pH = 7: 73%
  WSN pH = 8: 88%
  WSN pH = 9: 85%

## Thiolactic acid [reference compound]
[1]
  WSN pH = 7: 57%
  WSN pH = 8: 50%
  WSN pH = 9: 70%

## CC(S)C(=O)N(C)CCO (stereo not shown) [N-Methyl,N-(2-hydroxyethyl)-2-mercaptopropionamide]
[1]
  WSN pH = 7: 72%
  WSN pH = 8: 91%
  WSN pH = 9: 91%
other
  melting point: 95 °C

## CCCN(CCO)C(=O)C(C)S (stereo not shown) [N-Propyl,N-(2-hydroxyethyl)-2-mercaptopropionamide]
[1]
  WSN pH = 7: 77%
  WSN pH = 8: 89%
  WSN pH = 9: 99%
other
  melting point: 80 °C

## CC(O)CNC(=O)C(C)S (stereo not shown) [N-(2-Hydroxypropyl)-2-mercaptopropionamide]
[1]
  WSN pH = 7: 78%
  WSN pH = 8: 94%
  WSN pH = 9: 94%
[2]
  pKa: 8.37

## CCNCCNC(=O)C(C)S (stereo not shown) [N-(2-Ethylaminoethyl)-2-mercaptopropionamide]
[1]
  WSN pH = 7: 57%
  WSN pH = 8: 82%
  WSN pH = 9: 60%

## CC(S)C(=O)NCCCN(C)C (stereo not shown) [N-(3-Dimethylaminopropyl)-2-mercaptopropionamide]
[1]
  WSN pH = 7: 72%
  WSN pH = 8: 83%
  WSN pH = 9: 95%
other
  melting point: 84 °C

## COCCN(CCOC)C(=O)C(C)S (stereo not shown) [N,N-Bis-(2-methoxyethyl)-2-mercaptopropionamide]
[1]
  WSN pH = 7: 78%
  WSN pH = 8: 93%
  WSN pH = 9: 91%
other
  melting point: 85 °C

## CC(S)C(=O)N1CCN(C)CC1 (stereo not shown) [N,N-(4-Methylaza-pentamethylene)-2-mercaptopropionamide]
[1]
  WSN pH = 7: 78%
  WSN pH = 8: 86%
  WSN pH = 9: 78%

## CC(S)C(=O)NCCN (stereo not shown) [N-(2-Aminoethyl)-2-mercaptopropionamide]
[1]
  WSN pH = 7: 61%
  WSN pH = 8: 81%
  WSN pH = 9: 87%

## CCN(CCO)C(=O)C(C)S (stereo not shown) [N-Ethyl,N-(2-hydroxyethyl)-2-mercaptopropionamide]
[1]
  WSN pH = 7: 94%
  WSN pH = 8: 83%
  WSN pH = 9: 114%
other
  melting point: 95 °C

## CNCCCNC(=O)C(C)S (stereo not shown) [N-(3-Methylaminopropyl)-2-mercaptopropionamide]
[1]
  WSN pH = 7: 55%
  WSN pH = 8: 73%
  WSN pH = 9: 78%

## CC(S)C(=O)NCCN(C)C (stereo not shown) [N-(2-Dimethylaminoethyl)-2-mercaptopropionamide]
[1]
  WSN pH = 7: 81%
  WSN pH = 8: 87%
  WSN pH = 9: 83%
other
  melting point: 83 °C

## CC(S)C(=O)N1CCCC(O)C1 (stereo not shown)
[1]
  WSN pH = 7: 79%
  WSN pH = 8: 94%
  WSN pH = 9: 89%

## CCN(CC)CCCNC(=O)C(C)S (stereo not shown) [N-(3-Diethylaminopropyl)-2-mercaptopropionamide]
[1]
  WSN pH = 7: 77%
  WSN pH = 8: 73%
  WSN pH = 9: 81%
other
  melting point: 65 °C

## COCCCNC(=O)C(C)S (stereo not shown) [N-(3-Methoxypropyl)-2-mercaptopropionamide]
[1]
  WSN pH = 7: 79%
  WSN pH = 8: 92%
  WSN pH = 9: 91%
other
  melting point: 97 °C

## COCC(C)NC(=O)C(C)S (stereo not shown) [N-(1-Methoxy-2-propyl)-2-mercaptopropionamide]
[1]
  WSN pH = 7: 91%
  WSN pH = 8: 95%
  WSN pH = 9: 99%
other
  melting point: 60 °C
